Columns and labels:
MV3 melanoma cells = assay: 3D cell morphology analysis (blebs, surface curvature) of MV3 cells; type: cell-based, human
Experimental: Cells Embedded in 3D Collagen.
3D Light-Sheet Imaging. […] All images were saved in the OME-TIFF format.
3D Cell Image Analysis. Cell morphology and septin localization were analyzed principally via u-shape3D similar to the protocol described in Driscoll et al. Nature Methods. 16, 1037-1044 (2019), the disclosure of which is incorporated herein in its entirety. Briefly, 3D images were first deconvolved using either a Richardson-Lucy or Wiener algorithm with an experimentally measured point spread function. Cells were next segmented from the image background using u-shape3D's ‘twoLevel’ mode, which combines a straightforward Otsu threshold of the image to detect the outer cell surface with a blurred version of the image to segment the inside of the cell. The volume segmented from the blurred image was morphologically eroded to ensure the fidelity of the overall segmentation. Cell surfaces were then represented as triangle meshes, and the mean surface curvature at every triangle was calculated according to methods described in Driscoll et al. Nature Methods. 16, 1037-1044 (2019) and Elliott et al., Nat. […] To remove irregularities, the curvature was next smoothed in real space with a median filter of 1 pixel to remove infinities and then slightly diffused along the mesh. Septin and NRAS localization was measured from fluorescence images by extending a sphere of either 1 μm (for septins) or 2 μm (for NRAS) about each mesh triangle and mapping to the triangle the average intensity both within that sphere and the cell. Image intensity was not depth normalized prior to analysis, but was instead measured from the raw, undeconvolved image. […]
Blebs were also detected according to methods similar to that described in Driscoll et al. Nature Methods. […] Distances from bleb edges were then calculated as the geodesic distance from each triangle to the nearest bleb edge. […] Bleb and septin directional correlations were calculated using spherical statistics, in particular by fitting spherical normal distributions to distributions defined at each mesh triangle.

A375 cells = assay: Detached/adhered viability assay, ethidium homodimer staining, A375; type: cell-based, human; settings: for anoikis resistance (cell death adhered vs detached): 24 hours
Experimental: Bleb formation was inhibited using wheat germ agglutinin (WGA), a lectin that reduces plasma membrane deformability by crosslinking components of the glycocalyx. […] To investigate putative bleb function as a driver of anchorage-independent cell survival assays were designed that consistently minimized both cell-substrate and cell-cell attachment over a period of 24 hours. This was accomplished by seeding cells at very low density (approx. 250 or 100 cells/ml) in non-adherent culture dishes under constant gentle agitation. For controls, cells were grown at identical concentrations in adherent variants of the same culture dishes. Together, this generated pairs of ‘detached’ and ‘adhered’ cell populations in paired same-day experiments.
Cell Culture and Reagents. MV3 cells were obtained from MD Anderson Cancer Center. A375 cells (ATCCR CRL1619) were acquired from ATCC. M498 cells were acquired from UT Southwestern.
Detached/Adhered Cell Culture. […] Drug treatments, solvent-only controls, or CellEvent caspase activity sensor were added to suspensions if appropriate to the experiment, and then immediately transferred to both an uncoated (for detached cells) and ibiTreated (for adhered cells) 8-well ibidi u-slide (ibidi cat #80821 and 80826) at 200 μl/well. Both slides were stored at 37° C. and 5% CO2 for either 24 hours (hrs) for viability assays, 3 hrs for ERK activity assays or 4 hours for caspase activation assays. Uncoated slides (detached) were nutated at 20 rpm during this time. […] For experiments using MAPKi A375 cells, Dabrafenib and Trametinib treatment was continued over the course of the experiment.
Cells Grown in VitroGel Coffins. VitroGel coffins were prepared by embedding MV3 or A375 cells in VitroGel 3D or RGD at 1:1 dilution according to manufacturer's instructions (TheWell Biosciences, sku #TWG001). […] A 1:1 solution of VitroGel and VitroGel Dilution Solution was made and added to cell suspension at a ratio of 4:1 (VitroGel: cells) using gentle pipetting until well-mixed (with care taken not to form bubbles). Cell/VitroGel solution was transferred to an 8-well uncoated ibidi μ-slide (ibidi cat #80821) at 100 μl/well, spread over the bottom of wells with a pipette tip, and allowed to polymerize at room temperature for 15 minutes. The remainder of the well was then filled with 10% FBS DMEM and slide was stored at 37° C. and 5% CO2 for either 24 hrs for viability assays, 3 hrs for ERK activity assays, or 1 hour for visualization of septins/PI3K activity.
Viability, ERK Activity, and Caspase ActivityCell Counting Assays. Viability, ERK activity, and caspase activity assays were analyzed using live-cell fluorescent and phase-contrast microscopy, performed on a Nikon Ti microscope equipped with an environmental chamber held at 37° C. and 5% CO2 at 20× magnification. For viability assays, cells were stained with ethidium homodimer-1 (Invitrogen cat #E1169) at 4 µM and Hoechst (ThermoFisher cat #H3570) at 10 μg/ml for 15 minutes before imaging. Live and dead cells (as identified by significant cellular ethidium signal) were counted using the Cell Counter ImageJ plugin. For ERK activity assays, live cells carrying ERK-nKTR-GFP and H2B-mCherry were imaged after 3 hours of experimental conditions and high/low ERK activity cells were counted with Cell Counter ImageJ plugin. Cells in which nuclear GFP signals were by eye higher than cytoplasmic signal (“brighter” nucleus visible within “darker” cytoplasm) were labelled ERK low, while cytoplasmic signals equal to or higher than nuclear signal (nucleus indistinguishable from cytoplasm or “darker” nucleus within “brighter” cytoplasm) were labelled ERK high. To control for unconscious bias in making this determination, the identity of all ERK experimental groups were blinded from the analyst. […]

| Compound | blebbiness (MV3 melanoma cells; MV3, FCF treatment) | anoikis resistance (cell death adhered vs detached) (A375 cells; non-stressed A375, 50 μM FCF) | anoikis resistance (cell death adhered vs detached) (A375 cells; pre-stressed A375, 50 μM FCF) | bleb density (fraction of cell surface comprised of blebs) (MV3 melanoma cells; MV3 cells, different concentrations of WGA, morphological motif analysis) | mean plasma membrane curvature above K=0.4 μm-1 (MV3 melanoma cells; control vs WGA-treated MV3 cells) | viability (A375 cells; adhered A375 pre-incubated 48 hours with 10 nM Dabrafenib and 1 nM Trametinib, WGA) | cell death (A375 cells; detached A375 pre-incubated 48 hours with 10 nM Dabrafenib and 1 nM Trametinib, WGA) | anoikis resistance upon bleb inhibition (A375 cells; pre-stressed A375 cells (overconfluent for 48 hours), WGA) | cell death (A375 cells; unstressed A375 cells, adhered or detached, 24 hours of WGA) |
| --- | --- | --- | --- | --- | --- | --- | --- | --- | --- |
| O=C(Nc1ccccc1)Nc1ccnc(Cl)c1 [FCF, forchlorfenuron] | without altering blebbiness | no appreciable effect | greatly disrupted anoikis resistance |  |  |  |  |  |  |
| wheat germ agglutinin [WGA] |  |  |  | dosage dependent inhibitor of bleb density | reduced | minimal change in viability | increased cell death | strongly dependent upon blebbing | unaffected |
